Source: patent publication US8658661B2, “Oxadiazole inhibitors of leukotriene production” (Boehringer Ingelheim International GmbH, priority 2010, dated 2014)
Where two headings read alike, the source gives them in different places.

What was measured:
[1] = target: T1, recombinant human FLAP protein (Homo sapiens, UniProt P20292); test: FLAP binding assay (SPA, displacement of [125I]L-691,831)
T1 construct: made in house; host or cells: Sf9 insect cells (100,000×g membrane pellet used)
T1 sequence (P20292 1-161): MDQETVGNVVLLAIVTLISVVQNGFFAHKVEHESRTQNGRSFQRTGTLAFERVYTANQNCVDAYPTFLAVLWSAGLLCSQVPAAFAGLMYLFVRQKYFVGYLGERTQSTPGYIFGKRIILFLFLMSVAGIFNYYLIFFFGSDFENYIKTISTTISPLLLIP
Procedure, shortened: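 Membranes from sf9 cells expressing human FLAP in pH 7.5 Tris buffer (MgCl2, EDTA, PMSF). Non-specific binding defined with 10 μM cold L-691,831.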

[2] = system: synthesis of LTB4 in human whole blood; test: Human whole blood assay (inhibition of LTB4 synthesis, calcimycin stimulated); format: cell-based; conditions: heparinized human whole blood, calcimycin 20 μM, plasma LTB4
Procedure, shortened: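 Readout: plasma LTB4 by antibody-based HTRF. Compound added to heparinized human whole blood, 15 min 37° C; calcimycin 20 μM final (PBS pH 7.4), 30 min 37° C; spun 1500×g 5 min, plasma taken.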

[3] = membranes of sf9 cells expressing recombinant human FLAP, [125I]L-691,831 probe, read-out: FLAP binding IC50

| Structure (SMILES) | IC50 [1, 3] [nM] | IC50 [2] [nM] | IC50 [1] [nM] |
| --- | --- | --- | --- |
| CC(C)C(C)(c1ccc(-c2cnc(N)nc2)cc1)c1noc(-c2cnccn2)n1 (centres unmarked) [Example 137, 5-(4-{3-methyl-2-[5-(pyrazin-2-yl)-1,2,4-oxadiazol-3-yl]butan-2-yl}phenyl)pyrimidin-2-amine] | 2.8 | 77 |  |
| CC(C)C(C)(c1ccc(-c2cnc(N)nc2)cc1)c1noc(NCC2CCOCC2)n1 (centres unmarked) [Example 201, 5-[4-(1,2-Dimethyl-1-{5-[(tetrahydro-pyran-4-ylmethyl)-amino]-[1,2,4]oxadiazol-3-yl}-propyl)-phenyl]-pyrimidin-2-ylamine] | 13 | 200 |  |
| Cc1nc(C)c(-c2nc(C(C)(c3ccc(-c4cnc(N)nc4)cc3)C(C)C)no2)s1 (centres unmarked) [Example 153, 5-(4-{2-[5-(2,4-dimethyl-1,3-thiazol-5-yl)-1,2,4-oxadiazol-3-yl]-3-methylbutan-2-yl}phenyl)pyrimidin-2-amine] | 4.6 | 180 |  |
| CC(C)C(C)(c1ccc(-c2cnc(N)nc2)cc1)c1noc(N2CCN(C(C)(C)C)CC2)n1 (centres unmarked) [Example 261, 5-(4-{1-[5-(4-tert-Butyl-piperazin-1-yl)-[1,2,4]oxadiazol-3-yl]-1,2-dimethyl-propyl}-phenyl)-pyrimidin-2-ylamine] | 11 | 190 |  |
| C[C@](c1ccc(-c2ccc(N)nc2)cc1)(c1noc(N2CCC(O)CC2)n1)C1CC1 [Example 283, 1-(3-{(S)-1-[4-(6-Amino-pyridin-3-yl)-phenyl]-1-cyclopropyl-ethyl}-[1,2,4]oxadiazol-5-yl)-piperidin-4-ol] | 16 | 920 |  |
| CC(C)[C@@](C)(c1ccc(-c2cnc(N)nc2)cc1)c1noc(-c2cnn(C)c2)n1 (single isomer, unassigned) [Example 47] |  | 360 | 7.7 |
| CC(C)(c1ccc(-c2cnc(N)nc2)cc1)c1noc(-c2cn[nH]c2)n1 [Example 69, 5-(4-{2-[5-(1H-pyrazol-4-yl)-1,2,4-oxadiazol-3-yl]propan-2-yl}phenyl)pyrimidin-2-amine] | 7.7 | 120 |  |
| C[C@@](c1ccc(-c2ccc(N)nc2)cc1)(c1noc(-c2cnc(N3CCNCC3)cn2)n1)C1CC1 [Example 210, 5-(4-{(R)-1-Cyclopropyl-1-[5-(3,4,5,6-tetrahydro-2H-[1,2′]bipyrazinyl-5′-yl)-[1,2,4]oxadiazol-3-yl]-ethyl}-phenyl)-pyridin-2-ylamine] | 4.4 | 190 |  |
| CC(c1ccc(-c2cnc(N)nc2)cc1)(c1noc(-c2cn[nH]c2)n1)C1CCC1 (centres unmarked) [Example 34, 5-(4-{1-cyclobutyl-1-[5-(1H-pyrazol-4-yl)-1,2,4-oxadiazol-3-yl]ethyl}phenyl)pyrimidin-2-amine] | 3.7 | 160 |  |
| C[C@@](c1ccc(-c2cnc(N)cn2)cc1)(c1noc(-c2cnc(N3CCNCC3)cn2)n1)C1CC1 [Example 195, 5-(4-{(R)-1-Cyclopropyl-1-[5-(3,4,5,6-tetrahydro-2H-[1,2′]bipyrazinyl-5′-yl)-[1,2,4]oxadiazol-3-yl]-ethyl}-phenyl)-pyrazin-2-ylamine] | 4.6 | 280 |  |
| CNc1ccc(-c2ccc(C(C)(c3noc(-c4cnn(CC(=O)N(C)C)c4)n3)C3CC3)cc2)cn1 (centres unmarked) [Example 251, 2-[4-(3-{1-Cyclopropyl-1-[4-(6-methylamino-pyridin-3-yl)-phenyl]-ethyl}-[1,2,4]oxadiazol-5-yl)-pyrazol-1-yl]-N,N-dimethyl-acetamide] | 9.1 | 130 |  |
| COCCn1cc(-c2nc([C@@](C)(c3ccc(-c4cnc(N)nc4)cc3)C(C)C)no2)cn1 [Example 63, 5-{4-[(2R)-2-{5-[1-(2-methoxyethyl)-1H-pyrazol-4-yl]-1,2,4-oxadiazol-3-yl}-3-methylbutan-2-yl]phenyl}pyrimidin-2-amine] | 1.1 | 14 |  |
| CC(c1ccc(-c2cnc(N)nc2)cc1)(c1noc(N2CCN(CCO)CC2)n1)C1CC1 (centres unmarked) [Example 252, 2-[4-(3-{1-[4-(2-Amino-pyrimidin-5-yl)-phenyl]-1-cyclopropyl-ethyl}-[1,2,4]oxadiazol-5-yl)-piperazin-1-yl]-ethanol] | 15 | 220 |  |
| CC(C)C(C)(c1ccc(-c2cnc(N)nc2)cc1)c1noc(C2CCCCC2)n1 (centres unmarked) [Example 119, 5-{4-[2-(5-cyclohexyl-1,2,4-oxadiazol-3-yl)-3-methylbutan-2-yl]phenyl}pyrimidin-2-amine] | 9.2 | 900 |  |
| Cc1nc(N)nc(F)c1-c1ccc([C@](C)(c2noc(-c3cnn(CC(=O)N(C)C)c3)n2)C2CC2)cc1 [Example 298, 2-[4-(3-{(R)-1-[4-(2-Amino-4-fluoro-6-methyl-pyrimidin-5-yl)-phenyl]-1-cyclopropyl-ethyl}-[1,2,4]oxadiazol-5-yl)-pyrazol-1-yl]-N,N-dimethyl-acetamide] | 10 | 130 |  |
| CC(C)[C@@](C)(c1ccc(-c2cnc(N)nc2)cc1)c1noc(-c2cn[nH]c2)n1 [Example 78, 5-(4-{(2S)-3-methyl-2-[5-(1H-pyrazol-4-yl)-1,2,4-oxadiazol-3-yl]butan-2-yl}phenyl)pyrimidin-2-amine] | 1.3 | 240 |  |
| CC(c1ccc(-c2cnc(N)nc2)cc1)(c1noc(-c2cn(C3COC3)cn2)n1)C1CC1 (centres unmarked) [Example 207, 5-(4-{1-Cyclopropyl-1-[5-(1-oxetan-3-yl-1H-imidazol-4-yl)-[1,2,4]oxadiazol-3-yl]-ethyl}-phenyl)-pyrimidin-2-ylamine] | 92 | 700 |  |
| CN(C)C(=O)Cn1cc(-c2nc([C@@](C)(c3ccc(-c4cnc(N)[nH]c4=O)cc3)C3CC3)no2)cn1 [Example 197, 2-[4-(3-{(R)-1-[4-(2-amino-6-oxo-1,6-dihydro-pyrimidin-5-yl)-phenyl]-1-cyclopropyl-ethyl}-[1,2,4]oxadiazol-5-yl)-pyrazol-1-yl]-N,N-dimethyl-acetamide] | 16 | > 5000 |  |
| CC(C)(CO)Nc1ccc(-c2nc(C(C)(C)c3ccc(-c4cnc(N)nc4)cc3)no2)cn1 [Example 72, 2-{[5-(3-{2-[4-(2-aminopyrimidin-5-yl)phenyl]propan-2-yl}-1,2,4-oxadiazol-5-yl)pyridin-2-yl]amino}-2-methylpropan-1-ol] | 12 | 440 |  |
| Cc1nc(N)ccc1-c1ccc([C@](C)(c2noc(-c3cnn(CC(=O)N(C)C)c3)n2)C2CC2)cc1 [Example 292, 2-[4-(3-{(R)-1-[4-(6-Amino-2-methyl-pyridin-3-yl)-phenyl]-1-cyclopropyl-ethyl}-[1,2,4]oxadiazol-5-yl)-pyrazol-1-yl]-N,N-dimethyl-acetamide] | 8.5 | 150 |  |
| COCCNc1ccc(-c2nc(C(C)(c3ccc(-c4cnc(N)nc4)cc3)C3CC3)no2)cn1 (centres unmarked) [Example 38, 5-{4-[1-cyclopropyl-1-(5-{6-[(2-methoxyethyl)amino]pyridin-3-yl}-1,2,4-oxadiazol-3-yl)ethyl]phenyl}pyrimidin-2-amine] | 2.2 | 97 |  |
| CC(c1ccc(-c2cnc(N)nc2)cc1)(c1noc(N2CCCC2)n1)C1CC1 (centres unmarked) [Example 204, 5-{4-[1-Cyclopropyl-1-(5-pyrrolidin-1-yl-[1,2,4]oxadiazol-3-yl)-ethyl]-phenyl}-pyrimidin-2-ylamine] | 13 | 150 |  |
| CC(C)C(C)(c1ccc(-c2cnc(N)nc2)cc1)c1noc(-c2ccnn2C)n1 (centres unmarked) [Example 18, 5-(4-{3-methyl-2-[5-(1-methyl-1H-pyrazol-5-yl)-1,2,4-oxadiazol-3-yl]butan-2-yl}phenyl)pyrimidin-2-amine] | 3.3 | 320 |  |
| CN(C)C(=O)Cn1cc(-c2nc(C(C)(c3ccc(-c4cnc(N)c(C(F)(F)F)n4)cc3)C3CC3)no2)cn1 (centres unmarked) [Example 289, 2-[4-(3-{1-[4-(5-Amino-6-trifluoromethyl-pyrazin-2-yl)-phenyl]-1-cyclopropyl-ethyl}-[1,2,4]oxadiazol-5-yl)-pyrazol-1-yl]-N,N-dimethyl-acetamide] | 22 | 1000 |  |
| Cc1ncc(-c2nc(C(C)(c3ccc(-c4cnc(N)nc4)cc3)C(C)C)no2)cn1 (centres unmarked) [Example 152, 5-(4-{3-methyl-2-[5-(2-methylpyrimidin-5-yl)-1,2,4-oxadiazol-3-yl]butan-2-yl}phenyl)pyrimidin-2-amine] | 3.3 | 270 |  |
| Cc1cc(-c2ccc([C@](C)(c3noc(-c4cnn(CC(=O)N(C)C)c4)n3)C3CC3)cc2)cnc1N [Example 178, 2-[4-(3-{(R)-1-[4-(6-Amino-5-methyl-pyridin-3-yl)-phenyl]-1-cyclopropyl-ethyl}-[1,2,4]oxadiazol-5-yl)-pyrazol-1-yl]-N,N-dimethyl-acetamide] | 2.2 | 180 |  |
| CC(C)C(C)(c1ccc(-c2cnc(N)nc2)cc1)c1noc(C2CCN(C(=O)OC(C)(C)C)CC2)n1 (centres unmarked) [Example 109, 4-(3-{1-[4-(2-Amino-pyrimidin-5-yl)-phenyl]-1,2-dimethyl-propyl}-1,2,4-oxadiazol-5-yl)-piperidine-1-carboxylic acid tert-butyl ester] | 46 | 1500 |  |
| CCNc1nc(C(C)(c2ccc(-c3cnc(N)nc3)cc2)C(C)C)no1 (centres unmarked) [Example 134, 5-(4-{2-[5-(ethylamino)-1,2,4-oxadiazol-3-yl]-3-methylbutan-2-yl}phenyl)pyrimidin-2-amine] | 8.3 | 190 |  |
